These results are taken from ChEMBL document CHEMBL1201862, “PubChem BioAssay data set” (2004).

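Cells were grown in 96-well plates and exposed to each compound for 48 hours at five concentrations; endpoints were interpolated linearly between bracketing concentrations, or set to the highest concentration if not reached. GI50 marks 50% less growth.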 Active and inactive are the calls of the source. Rule as the data show it: active = GI50 up to about 1.1 µM and inactive = higher. Where only a bound is given, the exact number is not on record here.

Holding throughout (assay): NCI tumour cell line growth inhibition, 48 h
Experiment [1] has as its system DU-145.
In experiment [2] the test system is HCC 2998.
For experiment [3], the system named is HCT-116.
Experiment [4] concerns LOX IMVI.
Experiment [5] relates to MDA-MB-231.
Experiment [6] has as its system MDA-N.
Experiment [7] has as its system NCI-H460.
Experiment [8] has as its system NCI-H522.
In experiment [9] the test system is OVCAR-3.
Experiment [10] deals with OVCAR-4.
Experiment [11] has as its system OVCAR-5.
Experiment [12] concerns PC-3.
For experiment [13], the system named is SF-268.
Experiment [14] relates to SK-MEL-28.
The test system of experiment [15] is SNB-19.
The test system of experiment [16] is T47D.
Experiment [17] has as its system TK-10.
Experiment [18] has as its system UO-31.
Experiment [19] relates to HL-60.
For experiment [20], the system named is SF-539.

Regarding `Cc1cnc2sn(-c3ccc([N+](=O)[O-])cc3)c(=O)c2c1`, the GI50 in experiment [1] was 99.3 µM (inactive); in experiment [2] it was > 100 µM (inactive); in experiment [3], > 100 µM (inactive); in [4] it was 72.6 µM (inactive); in experiment [5], 82.2 µM (inactive); in experiment [6], > 100 µM (inactive). Also, the GI50 is 60.4 µM (inactive) in [7]; 34.7 µM (inactive) in experiment [8]; 36.1 µM (inactive) in experiment [9]; 94.8 µM (inactive) in [10]; > 100 µM (inactive) in experiment [11]; 66.2 µM (inactive) in experiment [12]. The GI50 in [13] is 54.1 µM (inactive); in experiment [14] it was > 100 µM (inactive); in experiment [15], 50.4 µM (inactive); in experiment [16], > 100 µM (inactive); in experiment [17], 75.2 µM (inactive); in [18], 74.6 µM (inactive).
Take `NCCNCC(O)CO` (stereo unspecified): the GI50 in experiment [1], in experiment [3], in [19], in [4], in experiment [5] and in experiment [6] was > 100 µM (inactive) each time. For the same compound, the GI50 in experiment [7], in experiment [8], in experiment [9], in experiment [10], in [11] and in experiment [12] was > 100 µM (inactive) each time. Moreover, the GI50 in experiment [13], in [20], in [14], in experiment [15], in [16] and in experiment [17] was > 100 µM (inactive) throughout. In addition, in experiment [18], the GI50 was > 100 µM (inactive).
Consider `c1ccc(C(=NNc2nc3ccccc3[nH]2)c2ccccn2)nc1`, for which the GI50 is 0.268 µM (active) in [1]; 15 µM (inactive) in experiment [2]; 0.0832 µM (active) in [3]; 0.172 µM (active) in experiment [4]; 0.166 µM (active) in [5]; 0.394 µM (active) in experiment [6]. In addition, the GI50 was 0.134 µM (active) in experiment [7]; 0.0288 µM (active) in experiment [8]; 0.0393 µM (active) in experiment [9]; 0.0592 µM (active) in experiment [10]; 1.74 µM (inactive) in experiment [11]; 0.224 µM (active) in [12]. Further, the GI50 in experiment [13] was 0.13 µM (active); in [20], 0.177 µM (active); in [14], 0.185 µM (active); in experiment [15] it was 0.33 µM (active); in experiment [16], 0.0131 µM (active); in experiment [17] it was 0.121 µM (active). For the same compound, the GI50 in [18] is 0.0847 µM (active).
In the case of `Br/C(=N\N=c1/nn[nH][nH]1)c1ccncc1`, the GI50 in experiment [1], in [3], in [19], in [4], in [5] and in experiment [6] was > 100 µM (inactive) each time. Besides, the GI50 in [7], in [8], in experiment [9], in experiment [10], in experiment [11] and in experiment [12] was > 100 µM (inactive) throughout. The GI50 in [13], in experiment [20], in [14], in experiment [15], in experiment [16] and in [17] was > 100 µM (inactive) throughout.
On to `c1ccc2c(c1)nc1n2CCCn2ccnc2-1`, for which the GI50 in experiment [1] was > 100 µM (inactive); in [3], > 100 µM (inactive); in [19], 0.225 µM (active); in experiment [4] it was > 100 µM (inactive); in [5], > 100 µM (inactive); in [6], > 100 µM (inactive). In addition, the GI50 in experiment [7], in experiment [8], in [9], in [10], in experiment [11] and in experiment [12] was > 100 µM (inactive) each time. The GI50 in experiment [13] is > 100 µM (inactive); in [20], 96.2 µM (inactive); in [14], > 100 µM (inactive); in experiment [15] it was > 100 µM (inactive); in experiment [16], 57.3 µM (inactive); in [18], 99.3 µM (inactive).
With `Cc1ccc(Cl)c2c(=O)c3ccc(N)cc3sc12`, the GI50 was 26.1 µM (inactive) in experiment [1]; 16.9 µM (inactive) in [3]; 2.99 µM (inactive) in experiment [19]; 22.2 µM (inactive) in [5]; 30.1 µM (inactive) in experiment [6]; 31.9 µM (inactive) in experiment [7]. Further, the GI50 in experiment [9] is 20 µM (inactive); in experiment [11], 28 µM (inactive); in experiment [12] it was 25 µM (inactive); in experiment [13], 27.9 µM (inactive); in experiment [20], 16 µM (inactive); in experiment [15], 27.9 µM (inactive). The GI50 in experiment [16] is 18.9 µM (inactive); in [17], 38.3 µM (inactive); in experiment [18], 13.9 µM (inactive).
For the compound `c1ccc(Nc2nnc(Cn3ccc4ccccc43)s2)cc1`, the GI50 was 92.9 µM (inactive) in experiment [1]; > 100 µM (inactive) in [2]; 42.7 µM (inactive) in experiment [3]; 56 µM (inactive) in experiment [4]; 38.3 µM (inactive) in experiment [5]; > 100 µM (inactive) in [6]. For the same compound, the GI50 was 47 µM (inactive) in experiment [7]; 51.8 µM (inactive) in experiment [8]; 24.5 µM (inactive) in experiment [9]; 36.8 µM (inactive) in [10]; > 100 µM (inactive) in experiment [11]; 19.2 µM (inactive) in experiment [12]. Besides, the GI50 in experiment [13] is 56.8 µM (inactive); in experiment [20], 35.6 µM (inactive); in experiment [14], 80.5 µM (inactive); in [15], 60 µM (inactive); in [16], 27.7 µM (inactive); in experiment [17], 76.6 µM (inactive). The GI50 in [18] is 36.4 µM (inactive).
For the compound `Nc1ccc2nc(N)n[n+]([O-])c2c1`, the GI50 in experiment [1], in experiment [3], in [19], in experiment [4], in experiment [5] and in experiment [6] was > 100 µM (inactive) each time. The GI50 in experiment [7], in [8], in experiment [9], in experiment [10], in [11] and in experiment [12] was > 100 µM (inactive) each time. Moreover, the GI50 in [13], in experiment [20], in [14], in experiment [15], in [16] and in [17] was > 100 µM (inactive) each time. In addition, the GI50 in experiment [18] is > 100 µM (inactive).
On to `O=C(NCCCCCCNC(=O)c1cc(-c2ccccc2)nc2ccccc12)c1cc(-c2ccccc2)nc2ccccc12`, for which the GI50 in experiment [1], in experiment [3], in experiment [19], in experiment [4], in experiment [5] and in experiment [6] was > 100 µM (inactive) each time. Also, the GI50 in experiment [7], in [8], in [9], in experiment [10], in experiment [11] and in [12] was > 100 µM (inactive) throughout. Besides, the GI50 in experiment [13], in experiment [20], in experiment [14], in experiment [15], in [16] and in experiment [17] was > 100 µM (inactive) in each case. In [18], the GI50 is > 100 µM (inactive).
For `Cc1nn(-c2ccccc2)c2nc3c(c(C)nn3-c3ccccc3)c(-c3ccccc3Br)c12`, the GI50 in experiment [1], in [2], in experiment [3], in experiment [4], in experiment [5] and in experiment [6] was > 100 µM (inactive) each time. The GI50 in [7], in [8], in experiment [9], in experiment [10], in experiment [11] and in [12] was > 100 µM (inactive) each time. The GI50 in [13], in [20], in experiment [14], in experiment [15], in [16] and in [17] was > 100 µM (inactive) in each case. Besides, in [18], the GI50 is 59.4 µM (inactive).
As for `O=S(=O)(c1ccc(/N=N/O)nc1)c1ccc2ccccc2c1`, the GI50 in [1] was > 100 µM (inactive); in experiment [3], > 100 µM (inactive); in [19], 47.8 µM (inactive); in experiment [5] it was > 100 µM (inactive); in experiment [6], > 100 µM (inactive); in experiment [7], 65.8 µM (inactive). Further, the GI50 in [8] was > 100 µM (inactive); in experiment [9] it was > 100 µM (inactive); in experiment [10], 32.6 µM (inactive); in experiment [11], > 100 µM (inactive); in experiment [12], 38.5 µM (inactive); in experiment [13], > 100 µM (inactive). The GI50 in experiment [20] was > 100 µM (inactive); in experiment [14], > 100 µM (inactive); in [15], > 100 µM (inactive); in experiment [16] it was 40 µM (inactive); in [17], 94 µM (inactive); in [18], 23.1 µM (inactive).
